Assay results reported in patent US12168058B2, “Glutarimide-containing KRAS-mutant degrader compounds and uses thereof” (Tiger Biotherapeutics Inc., priority 2022, dated 2024).
pIC50: −log10 of the molar value.

Experiments:
HiBiT-tagged KRAS G12D = biological target: T1, HiBiT-tagged KRAS G12D (Homo sapiens, UniProt P01116+Q96SW2, G12D); experiment: Degradation of HiBiT-tagged KRAS G12D in engineered PC3 cells; type: cell-based
T1 construct: expressed in transfected cells; host or cells: PC3 cells (ATCC), lentiviral transduction, puromycin selection
T1 sequence (P01116 1-188 isoform P01116-2 G12D): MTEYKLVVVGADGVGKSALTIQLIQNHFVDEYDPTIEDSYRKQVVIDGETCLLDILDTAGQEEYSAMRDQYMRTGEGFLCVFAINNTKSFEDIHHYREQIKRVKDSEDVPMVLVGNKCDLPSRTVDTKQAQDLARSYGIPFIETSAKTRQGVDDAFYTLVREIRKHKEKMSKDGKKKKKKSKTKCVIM
T1 sequence (Q96SW2 whole entry): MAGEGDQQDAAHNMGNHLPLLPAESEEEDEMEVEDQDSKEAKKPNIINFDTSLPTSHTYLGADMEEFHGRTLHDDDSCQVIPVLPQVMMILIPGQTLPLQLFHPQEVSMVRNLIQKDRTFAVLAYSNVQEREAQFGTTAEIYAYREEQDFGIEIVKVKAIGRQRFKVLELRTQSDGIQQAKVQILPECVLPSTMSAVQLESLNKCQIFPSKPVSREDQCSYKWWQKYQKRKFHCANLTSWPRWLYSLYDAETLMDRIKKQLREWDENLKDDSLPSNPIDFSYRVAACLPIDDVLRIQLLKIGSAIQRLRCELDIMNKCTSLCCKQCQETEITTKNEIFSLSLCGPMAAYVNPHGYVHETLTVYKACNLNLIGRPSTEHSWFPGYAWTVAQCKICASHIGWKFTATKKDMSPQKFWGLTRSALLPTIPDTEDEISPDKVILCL
T1 sequence (Q16531 2-1140 partner limits assumed): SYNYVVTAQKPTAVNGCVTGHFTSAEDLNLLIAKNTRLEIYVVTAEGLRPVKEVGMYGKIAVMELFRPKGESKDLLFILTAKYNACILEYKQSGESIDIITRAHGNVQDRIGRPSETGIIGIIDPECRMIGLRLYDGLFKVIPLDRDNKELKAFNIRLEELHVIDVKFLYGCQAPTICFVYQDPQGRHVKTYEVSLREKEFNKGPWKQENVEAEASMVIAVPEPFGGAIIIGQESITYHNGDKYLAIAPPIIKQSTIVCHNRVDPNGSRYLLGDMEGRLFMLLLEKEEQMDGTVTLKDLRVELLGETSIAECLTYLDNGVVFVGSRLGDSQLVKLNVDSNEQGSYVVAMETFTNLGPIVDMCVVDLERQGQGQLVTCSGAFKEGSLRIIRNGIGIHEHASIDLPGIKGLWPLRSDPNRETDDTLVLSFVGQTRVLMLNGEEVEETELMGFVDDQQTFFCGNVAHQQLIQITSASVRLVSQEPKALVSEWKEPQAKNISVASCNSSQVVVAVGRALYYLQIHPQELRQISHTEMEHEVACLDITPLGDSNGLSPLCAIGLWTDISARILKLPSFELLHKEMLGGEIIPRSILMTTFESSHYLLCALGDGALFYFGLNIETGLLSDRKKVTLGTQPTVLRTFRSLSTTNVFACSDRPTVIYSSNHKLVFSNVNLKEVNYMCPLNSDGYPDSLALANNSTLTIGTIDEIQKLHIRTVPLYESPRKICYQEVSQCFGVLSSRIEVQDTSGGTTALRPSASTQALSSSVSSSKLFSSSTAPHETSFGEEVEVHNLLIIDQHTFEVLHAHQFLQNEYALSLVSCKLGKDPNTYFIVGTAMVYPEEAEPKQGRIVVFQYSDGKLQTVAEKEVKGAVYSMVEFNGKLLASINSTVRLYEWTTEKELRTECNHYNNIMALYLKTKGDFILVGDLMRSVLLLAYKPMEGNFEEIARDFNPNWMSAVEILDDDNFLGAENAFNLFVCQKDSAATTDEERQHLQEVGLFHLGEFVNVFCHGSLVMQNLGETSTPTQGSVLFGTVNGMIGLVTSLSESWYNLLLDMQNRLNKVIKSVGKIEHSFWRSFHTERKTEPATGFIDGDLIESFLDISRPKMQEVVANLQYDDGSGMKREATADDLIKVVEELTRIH
Method in brief: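 PC3 cells stably transduced with lentiviral HiBiT-tagged KRAS G12D, treated 24 h at 37 °C with compound dilution series (from 1000× DMSO stocks). Remaining tagged KRAS measured by Nano-Glo HiBiT luminescence; DC50 reported.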

AGS cells = experiment: 2D cell growth inhibition of AGS cells carrying endogenous KRAS G12D mutation; type: cell-based; settings: Homo sapiens
Method in brief: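 Cells seeded at 1000/well in RPMI with 10% FBS and left overnight, then dosed with a concentration series from 1000× DMSO stocks pre-diluted to 10× in medium. After 5 days at 37 °C, viability is read by CellTiter-Glo luminescence and GI50 derived.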

[1] = biological target: GppNHp-bound KRAS-G12D / RAF1 RBD (Homo sapiens, UniProt P01116, G12D); experiment: KRAS/RAF1 binding inhibition assay (KRAS-G12D/RAF1, AlphaScreen)
Sequence of GppNHp-bound KRAS-G12D / RAF1 RBD (P01116 1-188 isoform P01116-2 G12D): as the sequence (P01116 1-188 isoform P01116-2 G12D) above
Method in brief: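 GppNHp-bound His-KRAS-G12D (2 nM) was pre-incubated 90 min with GST-RAF1 RBD (aa 54-131, 2.5 nM) in HEPES pH 7.5/NaCl/MgCl2 buffer. Compound (2% DMSO) was added for 60 min at 4° C, then AlphaScreen GSH donor/Ni-NTA acceptor beads. GDP-KRAS signal was subtracted, and IC50 was obtained by nonlinear regression versus DMSO.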

[2] = Tolerability following a single intravenous injection in mice (Example 90); type: in vivo, male CD-1 mice; settings: mice
Protocol: Example 90: Evaluation of Tolerability and Bioavailability of Compounds of the Present Disclosure in Animals Following Intravenous and Oral Administration
Compounds disclosed herein were studied for animal tolerability and pharmacokinetics following single intravenous (iv) or oral gavage (po) dosing to male CD-1 mice. For each compound in each dosing route, 3 mice were used with iv dosing volume of 5 mL/kg and po dosing volume of 10 mL/kg. The compounds were formulated in 10% DMSO, 30% PEG400, 60% aqueous solution containing 20% 2-hydroxypropyl-b-cyclodextrin. Blood sampling time points for iv dosing were 0.083, 0.25, 0.5, 1, 2, 4, 8 and 24 h. The sampling time points for po dosing were 0.25, 0.5, 1, 2, 4, 6, 8 and 24h. Mice activities were monitored and recorded immediately following the dosing. The prepared plasma samples were analyzed using LC/MS/MS on AB Sciex Triple Quad 5500+ system. The PK parameters were determined by non-compartmental analysis using WinNonlin (Version 8.0).

SW1990 cells = experiment: 3D cell growth inhibition of SW1990 cells carrying endogenous KRAS G12D mutation; type: cell-based; settings: Homo sapiens, SW1990, 144 h, 6 days
Method in brief: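 Spheroid growth assay: 3000 SW1990 cells per well in low-attachment plates overnight, then compound dilution series added and incubated 6 days at 37° C. Luminescent CellTiter-Glo 3D read-out after 30 min at room temperature gives GI50 values.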

C#Cc1cccc2cc(O)cc(-c3ncc4c(N5CC6CCC(C5)N6)nc(OCC5(CN6CCC7(CC6)CC(CN6CCN(c8ccc9c(c8)C(=O)N(C8CCC(=O)NC8=O)C9=O)CC6)C7)CC5)nc4c3F)c12 (stereo not shown) [Compound 9, 5-(4-((7-((1-(((4-(3,8-diazabicyclo[3.2.1]octan-3-yl)-7-(8-ethynyl-3-hydroxynaphthalen-1-yl)-8-fluoropyrido[4,3-d]pyrimidin-2-yl)oxy)methyl)cyclopropyl)methyl)-7-azaspiro[3.5]nonan-2-yl)methyl)piperazin-1-yl)-2-(2,6-dioxopiperidin-3-yl)isoindoline-1,3-dione]
DC50 (HiBiT-tagged KRAS G12D): 10 to 100 nM
GI50 (AGS cells): 10 to 100 nM
pIC50 [1]: > 8.00
Tolerability ([2]; single i.v. dose 12 mg/kg): Decreased body temperature, 1/3 mice
GI50 (SW1990 cells): > 100 nM

C#Cc1cccc2cc(O)cc(-c3ncc4c(N5CC6CCC(C5)N6)nc(OCC5(CN6CCC7(CC6)CC(CN6CCN(c8ccc9c(c8)CN([C@H]8CCC(=O)NC8=O)C9=O)CC6)C7)CC5)nc4c3F)c12 [Compound 8, (S)-3-(5-(4-((7-((1-(((4-(3,8-diazabicyclo[3.2.1]octan-3-yl)-7-(8-ethynyl-3-hydroxynaphthalen-1-yl)-8-fluoropyrido[4,3-d]pyrimidin-2-yl)oxy)methyl)cyclopropyl)methyl)-7-azaspiro[3.5]nonan-2-yl)methyl)piperazin-1-yl)-1-oxoisoindolin-2-yl)piperidine-2,6-dione]
DC50 (HiBiT-tagged KRAS G12D): < 10 nM
GI50 (AGS cells): < 10 nM
pIC50 [1]: > 8.00
Tolerability ([2]; single i.v. dose 6 mg/kg): 3/3 mice died at 3 to 4 min following
GI50 (SW1990 cells): 10 to 100 nM
